Molecular target: AT2 receptor (Homo sapiens (Human), UniProt P50052)
Test: AT2 Receptor Binding
Conditions: HEK293 AT2 receptor transient cell membranes, [125I]-CGP42112A
Method: 1. Trypsin-EDTA (for Preparation of 100 mL)
• Dissolve trypsin in 2% EDTA and PBS completely; sterilize the solution by passing through a […] membrane filter; store at 4° C.
2. DMEM Medium (for Preparation of 1 L) • The powder was dissolved into 950 mL of distilled water with gentle stirring until the solution becomes clear. • Add. NaHCO3 1.176 g for DMEM medium. • Adjust pH of medium to 0.2˜0.3 below final working pH using 1 M NaOH or 1 M • HCl. Add slowly with stirring. • Dilute to 1 liter with ddH2O. • Sterilize the medium immediately by filtration. • Store at 4° C.
3. TE Buffer • 20 mM Tris-HCl, pH 7.4, • 5 mM EDTA
4. Binding Assay Buffer • 50 mM Hepes, pH 7.4 • 5 mM MgCl2 • 1 mM CaCl2 • 0.2% BSA
5. Wash Buffer • 50 mM Hepes, pH 7.4 Procedures for HEK293AT2 Receptor Transient Cell Transfection • Cells were plated into 150 mm dish at 50% density for transient transfection. Cells were ready for transfection after overnight incubation (the confluence reaches around 80%). • 75 μL Lipofectamine™2000 diluted in 6.25 mL OptiMEM I Reduced Serum Medium, was mixed gently, and incubated at room temperature for 5 minutes. 50 μg expression plasmid DNA diluted in 6.25 mL OptiMEM I Reduced Serum Medium without serum was mixed gently. • After the 5 minute incubation, the diluted DNA was combined with the diluted Lipofectamine™2000 (total volume is 12.5 mL). The mixture was mixed gently and incubated for 30 minutes at room temperature to allow the DNA-Lipofectamine™2000 complexes to form. • The 12.5 mL DNA-Lipofectamine™2000 complexes were added into the 150 mm dish and mixed gently by rocking the dish back and forth. • The cells were incubated at 37° C. with 5% CO2 for 48 hours. Cells were collected and stored frozen at −80° C. Procedures for HEK293AT2 Receptor Cell Membrane Preparation • Frozen HEK293AT2 receptor (transient transfected) cells were homogenized in ice cold TE buffer for 10s. • The homogenate was centrifuged at 25,000 g for 30 minutes. • The pellet was resuspended in ice cold tissue buffer. • Protein concentrations were determined using Bradford assay method with BSA as standard. • The membrane protein was frozen under −80° C. Compound Preparation
Solutions of all compounds were prepared bymicroplate liquid handling equipment such as Janus or Precision 2000. Compounds, dissolved in DMSO were stored in a Freezer. Compounds were prepared from 30 mM in 100% DMSO.
Step 1: Dose Plate Preparation (96 Well Plate)
• Add the 3 μL [30 mM] compound stock to column 1 on the plate. • Add 15 μL of 100% DMSO to column 1. • Add 10.81 μL of 100% DMSO to column 2-12. • Transfer 5 μL from column 1 into column 2 (half log dilution). • Transfer 5 μL from column 2 into column 3 (half log dilution). • Transfer 5 μL from column 3 into column 4 (half log dilution). • Transfer 5 μL from column 4 into column 5 (half log dilution). • Transfer 5 μL from column 5 into column 6 (half log dilution). • Transfer 5 μL from column 6 into column 7 (half log dilution). • Transfer 5 μL from column 7 into column 8 (half log dilution). • Transfer 5 μL from column 8 into column 9 (half log dilution). • Transfer 5 μL from column 9 into column 10 (half log dilution) • Transfer 5 μL from column 10 into column 11 (half log dilution) • Transfer 5 μL from column 11 into column 12 (half log dilution).
All the compounds were diluted using Precision 2000 microplate liquid handling equipment. The top concentration of compound was 5 mM with 100% DMSO.
Step 2: Working Plate Preparation (96 Well Plate)
• Compounds were diluted 50-fold with buffer. • 49 μL buffer was added to the well of 96 well plate. • 1 μL compound solution from dose plate was transferred to the corresponding well of working plate. • The top concentration of compound was 100 μM with 2% DMSO. Step 3: Assay Plate Preparation (96 Well Plate)
15 μL of compound solution was transferred from each well of working plate to the well of assay plate by Janus.

Sequence of AT2 receptor (P50052 whole entry, species assumed): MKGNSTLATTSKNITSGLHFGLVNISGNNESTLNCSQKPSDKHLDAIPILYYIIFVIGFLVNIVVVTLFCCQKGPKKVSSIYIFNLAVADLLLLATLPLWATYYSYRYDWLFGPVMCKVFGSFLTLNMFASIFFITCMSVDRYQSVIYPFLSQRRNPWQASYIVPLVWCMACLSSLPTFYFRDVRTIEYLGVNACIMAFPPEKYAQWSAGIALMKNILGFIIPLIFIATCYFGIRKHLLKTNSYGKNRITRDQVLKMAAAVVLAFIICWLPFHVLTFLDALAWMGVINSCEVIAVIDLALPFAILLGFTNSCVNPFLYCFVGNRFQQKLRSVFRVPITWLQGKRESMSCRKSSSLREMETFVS

SMILES	IC50 [nM]
O=C(O)[C@@H]1C[C@H](N2CCCC2Cc2ccccc2)CN1C(=O)C(c1ccccc1)c1ccccc1 (single isomer, unassigned) [Compound 61-B, (3′S,5′S)-2-benzyl-V-(2,2-diphenylacetyl)-[1,3′-bipyrrolidine]-5′-carboxylic acid]	107
O=C(O)[C@@H]1C[C@H](N2CCCCC2Cc2ccccc2)CN1C(=O)C(c1ccccc1)c1ccccc1 (single isomer, unassigned) [Compound 70-A]	49.1
O=C(O)[C@@H]1C[C@@H](OCc2ccccc2)CN1C(=O)C(c1ccccc1)c1ccccc1 [Compound 3, (2S,4R)-4-(benzyloxy)-1-(2,2-diphenylacetyl)pyrrolidine-2-carboxylic acid]	193
CN(C)S(=O)(=O)NC(=O)[C@@H]1C[C@H](OCCCc2ccccc2)CN1C(=O)C(c1ccccc1)c1ccccc1 [Compound 112, (2S,4S)—N—(N,N-dimethylsulfamoyl)-1-(2,2-diphenylacetyl)-4-(3-phenylpropoxy)pyrrolidine-2-carboxamide]	255
O=C(O)[C@@H]1C[C@H](N2CCC[C@@H](c3ccccc3)C2)CN1C(=O)C(c1ccccc1)c1ccccc1 [Compound 48, (2S,4S)-1-(2,2-diphenylacetyl)-4-((S)-3-phenylpiperidine-1-yl)pyrrolidine-2-carboxylic acid]	89.4
O=C(O)[C@@H]1C[C@H](N2CCCC2Cc2ccccc2)CN1C(=O)C(c1ccccc1)c1ccccc1 (single isomer, unassigned) [Compound 61-A, (3′S,5′S)-2-benzyl-V-(2,2-diphenylacetyl)-[1,3′-bipyrrolidine]-5′-carboxylic acid]	83.3
O=C(O)[C@@H]1C[C@H](N2CC[C@@H](c3ccccc3)C2)CN1C(=O)C(c1ccccc1)c1ccccc1 [Compound 86]	817
O=C(O)[C@@H]1C[C@H](N2CCN(c3ccccc3)CC2)CN1C(=O)C(c1ccccc1)c1ccccc1 [Compound 23, (2S,4S)-1-(2,2-diphenylacetyl)-4-(4-phenylpiperazine)pyrrolidine-2-carboxylic acid]	290
O=C(O)[C@@H]1C[C@H](Oc2ccccc2Oc2ccccc2)CN1C(=O)C(c1ccccc1)c1ccccc1 [Compound 35, (2S,4S)-1-(2,2-diphenylacetyl)-4-(2-phenoxyphenoxy)-pyrrolidine-2-carboxylic acid]	540
O=C(O)C1Cc2c(OCc3ccccc3)cccc2N1C(=O)C(c1ccccc1)c1ccccc1 (stereo not drawn) [Compound 15, 4-(benzyloxy)-1-(2,2-diphenylacetyl)indoline-2-carboxlic acid]	54.5
O=C(O)[C@@H]1C[C@H](N2CCC[C@@H]3CN(Cc4ccccc4)C[C@@H]32)CN1C(=O)C(c1ccccc1)c1ccccc1 [Compound 85, (2S,4S)-4-((4aR,7aR)-6-benzoctahydro-1H-pyrrolo[3,4-b]-pyridin-1-yl)-1-(2,2-diphenylacetyl)pyrrolidine-2-carboxylic acid]	103
O=C(O)[C@@H]1C[C@H](N2CCC3(CC2)C(=O)NC3c2ccccc2)CN1C(=O)C(c1ccccc1)c1ccccc1 (stereo partly drawn) [Compound 75, (2S,4S)-1-(2,2-diphenylacetyl)-4-(1-oxo-3-phenyl-2,7-diazaspiro[3,5]nonan-7-yl)pyrrolidine-2-carboxylic acid]	3830

Now from value to compound:

IC50 [nM]	SMILES
674	O=C(O)[C@@H]1C=C(C#CCCc2ccccc2)CN1C(=O)C(c1ccccc1)c1ccccc1 [Compound 140, (S)-1-(2,2-diphenylacetyl)-4-(4-phenylbut-1-yn-1-yl)-2,5-dihydro-1H-pyrrole-2-carboxylic acid]
363	O=C(O)[C@@H]1C[C@H](SCCCc2ccccc2)CN1C(=O)C(c1ccccc1)c1ccccc1 [Compound 124, (2S,4S)-1-(2,2-diphenylacetyl)-4-((3-phenylpropyl)thio)-pyrrolidine-2-carboxylic acid]
126	CN(CCCc1cccnc1)[C@H]1C[C@@H](C(=O)O)N(C(=O)C(c2ccccc2)c2ccccc2)C1 [Compound 93]
993	O=C(O)[C@@H]1[C@@H](OCCCc2ccccc2)CN1C(=O)C(c1ccccc1)c1ccccc1 (mixture of isomers) [Compound 142, (2S,3S)-1-(2,2-diphenylacetyl)-3-(3-phenylpropoxy)-azetidine-2-carboxylic acid and (2R,3R)-1-(2,2-diphenylacetyl)-3-(3-phenylpropoxy)-azetidine-2-carboxylic acid]
17.1	CN(CCCc1ccc(F)cc1)[C@H]1C[C@@H](C(=O)NS(=O)(=O)N(C)C)N(C(=O)C(c2ccccc2)c2ccccc2)C1 [Compound 114, (2S,4S)—N—(N,N-dimethylsulfamoyl)-1-(2,2-diphenylacetyl)-4-((3-(4-fluorophenyl)propyl)(methyl)amino)pyrrolidine-2-carboxylic acid]
64.2	CN(CCCCc1ccccc1)[C@H]1C[C@@H](C(=O)O)N(C(=O)C(c2ccccc2)c2ccccc2)C1 [Compound 90, (2S,4S)-1-(2,2-diphenylacetyl)-4-(methyl(4-phenylbutyl)-amino)pyrrolidine-2-carboxylic acid]
652	O=C(O)[C@@H]1C[C@H](SCCc2ccccc2)CN1C(=O)C(c1ccccc1)c1ccccc1 [Compound 131, (2S,4S)-1-(2,2-diphenylacetyl)-4-(phenethylthio)pyrrolidine-2-carboxylic acid]
461	O=C(O)[C@@H]1C[C@H](c2sccc2-c2ccccc2)CN1C(=O)C(c1ccccc1)c1ccccc1 [Compound 107, (2S,4S)-1-(2,2-diphenylacetyl)-4-(3-phenylthiophen-2-yl)-pyrrolidine-2-carboxylic acid]
426	O=C(O)[C@@H]1C[C@H](CCCCc2ccccc2)CN1C(=O)C(c1ccccc1)c1ccccc1 [Compound 106, (2S,4S)-1-(2,2-diphenylacetyl)-4-(4-phenylbutyl)-pyrrolidine-2-carboxylic acid]
18	O=C(O)[C@@H]1C[C@H](n2nncc2-c2ccccc2)CN1C(=O)C(c1ccccc1)c1ccccc1 [Compound 100, (2S,4S)-1-(2,2-diphenylacetyl)-4-(5-phenyl-1H-1,2,3-triazol-1-yl)pyrrolidine-2-carboxylic acid]
2250	O=C(CCc1ccccc1)N[C@H]1C[C@@H](C(=O)O)N(C(=O)C(c2ccccc2)c2ccccc2)C1 [Compound 96, (2S,4S)-1-(2,2-diphenylacetyl)-4-(3-phenylpropanamido)-pyrrolidine-2-carboxylic acid]
499	O=C(O)[C@@H]1C[C@H](N2C(=O)COC[C@@H]2Cc2ccccc2)CN1C(=O)C(c1ccccc1)c1ccccc1 [Compound 102, (2S,4S)-4-((S)-3-benzyl-5-oxomorpholino)-1-(2,2-diphenylacetyl)pyrrolidine-2-carboxylic acid]
1740	O=C(O)[C@@H]1C[C@H](SCCCc2ccc(F)cc2)CN1C(=O)C(c1ccccc1)c1ccccc1 [Compound 133, (2S,4S)-1-(2,2-diphenylacetyl)-4((3-(4-fluorophenyl)propyl)thio)pyrrolidine-2-carboxylic acid]
321	O=C(O)[C@@H]1C[C@H](N2CCC3(CCOC(=O)N3Cc3ccccc3)C2)CN1C(=O)C(c1ccccc1)c1ccccc1 (stereo partly drawn) [Compound 115]
240	CS(=O)(=O)NC(=O)[C@@H]1C[C@H](OCCCc2ccccc2)CN1C(=O)C(c1ccccc1)c1ccccc1 [Compound 135, (2S,4S)-1-(2,2-diphenylacetyl)-N-(methylsulfonyl)-4-(phenylpropoxy)pyrrolidine-2-carboxamide]
